Series [1] in a line: Plasma protein binding by rapid equilibrium dialysis, human. It counts as in vitro ADME. Particulars: plasma (50% in PBS). Here is the method: Plasma protein binding was measured by rapid equilibrium dialysis (RED). A DMSO stock solution of the compounds was prepared at a concentration of 10 mM and diluted to a concentration of […] with 50% plasma in phosphate buffered saline (PBS, pH 7.4). Plasma samples (100 μL) and PBS (300 μL) were added to the sample chamber and the buffer chamber, respectively, after which the RED device was turn on and the samples were incubated in a shaking incubator at 37° C. for 4 hours. After dialysis, 50 μl aliquots were collected from each side of the chamber. 50 μl of blank plasma was added to the buffer sample, and 50 μl of PBS was also added to the plasma sample. 200 μL of acetonitrile containing an internal standard was added to each sample. The samples were centrifuged at 3200 g for 20 minutes at 4° C., and the supernatants were obtained and analyzed by an LC-MS/MS system. The plasma protein binding rate was calculated as follows: Free form (%)=(Buffer chamber/Plasma chamber)×100 Bound form (%)=100−Free form (%).

The subject of series [2] is SNL rats (mechanical allodynia). Description: Antiallodynic effect (von Frey) in spinal nerve ligation (SNL) rats. It counts as in vivo, rat. Here is the method:
3-1. Evaluation of In Vivo Efficacy
The antiallodynic effects (mechanical allodynia) were evaluated using rats according to a previously reported protocol. In order to evaluate the withdrawal threshold, rats (naive, SNL and CIPN) were placed on a plastic mesh floor of individual plastic cages. The rats were allowed to acclimate to the environment for 30 minutes and examined after intrathecal or intravenous administration to the caudal vein. The control group received the same volume of vehicle (intrathecal administration of saline or DMSO, intravenous administration of DMSO:PEG:PBS=1:6:3 v/v %) as the experimental groups. Evaluation of the mechanical withdrawal threshold was measured in responses to the application of calibrated von Frey filaments (Stoelting, Wood Dale, Ill., USA) to the hind paw of the rats through the holes on the mesh floor underneath the cage using the ‘up and down method’. A series of eight von Frey filaments (0.4, 0.7, 1.2, 2.0, 3.6, 5.5, 8.5, and 15 g) was applied perpendicular to the sole of the hind paw for 5 seconds while the head was bent. Active withdrawal or flinching of the paw was considered as a positive reaction. The absence of response in the rats, when a pressure was applied to 15 g von Frey filament, was used as a cut-off value. Only rats with definite allodynia (i.e., mechanical withdrawal threshold: less than 4 g after SNL or less than 5 g after CIPN) were tested. The rats after termination of the experiments were euthanized through an overdose of sevoflurane. The withdrawal threshold data for the von Frey filament test was calculated as % MPE (maximum possible effect) based on the following Calculation Equation: % MPE=[(Post-drug threshold−Post-injured baseline threshold)/(Cutoff threshold−post-injured baseline threshold)×100]. Dose-response data were analyzed using Scheffe's post hoc test and one-way analysis of variance (ANOVA).

In series [3] the target is T1, mouse P2X1 receptor (mP2X1) (Mus musculus, UniProt P51576).
T1 construct: expressed in transfected cells; host or cells: Xenopus oocytes (cRNA microinjection)
T1 sequence (P51576 1-399): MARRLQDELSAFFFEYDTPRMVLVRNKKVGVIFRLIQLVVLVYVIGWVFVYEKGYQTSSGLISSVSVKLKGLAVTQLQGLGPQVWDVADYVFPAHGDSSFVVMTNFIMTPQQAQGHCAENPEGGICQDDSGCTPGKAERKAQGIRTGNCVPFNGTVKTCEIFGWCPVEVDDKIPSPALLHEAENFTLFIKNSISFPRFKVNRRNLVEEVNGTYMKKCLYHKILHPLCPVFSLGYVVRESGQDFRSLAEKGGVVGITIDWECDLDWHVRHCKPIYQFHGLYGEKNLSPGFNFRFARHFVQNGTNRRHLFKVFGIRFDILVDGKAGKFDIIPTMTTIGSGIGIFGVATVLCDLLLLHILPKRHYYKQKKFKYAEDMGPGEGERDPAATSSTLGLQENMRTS
Put plainly: Two-electrode voltage clamp assay, recombinant mP2X1 receptor in Xenopus oocytes. It counts as cell-based. Conditions: 10 μM compound, 2 μM ATP, mean±SEM n≥3 (footnote c), read-out: mP2X1 % inhibitory effect at 10 μM. Here is the method:
1-1. Two-Electrode Voltage Clamp Assay for Recombinant mP2X1 and hP2X3 Receptors
Xenopus oocytes were isolated and incubated with 270 U/mg of collagenase at 23 to 24° C. for 1.5 hours. Defolliculated oocytes were kept in Barth's solution at 18° C. After 1 day, the defolliculated oocytes were each microinjected cytosolically with mP2X1 and human P2X3 receptor cRNA ([…], 1 μg/mL), incubated for 24 hours at 18° C. in Barth's solution. The cRNA-injected oocytes were kept for 12 days at 4° C. ATP-activated membrane currents (Vh=−70 mV) were recorded from the cRNA-injected oocytes using the two-electrode voltage clamp technique (Axoclamp 2B amplifier). Voltage recording ([…] tip resistance) and current-recording microelectrodes (5 MΩ tip resistance) were filled with 3.0 M KCl. Oocytes were placed in an electrophysiological chamber continuously superfused with Ringer's solution (5 mL/min, at 18° C.) containing 110 mM NaCl, 2.5 mM KCl, 5 mM HEPES and 1.8 mM BaCl2, with pH adjusted to 7.5. To induce an evoked current, 2 μM ATP was superfused for 60 to 120 seconds and then washed for 20 min. For data analysis, the ATP-evoked current was normalized at pH 7.5. The compounds were introduced to the fixed oocytes 20 minutes prior to ATP exposure in the electrophysiological chamber. IC50 values (the concentration of the compound required to inhibit the ATP response by 50%) were determined by Hill plots designed using the Chemical Formula: log(I/Imax−1), where I is the current evoked by ATP in the presence of an antagonist. Data are presented as mean±SEM (n≥3) from different batches of oocytes.
In order to investigate the structure-activity relationship (SAR) of the compounds synthesized in the present invention, the antagonistic activity was evaluated by a two-electrode voltage clamp (TEVC) assay in Xenopus oocytes expressing the recombinant mP2X1 or hP2X3, respectively. The hP2X7R antagonistic activity was assessed using an ethidium ion accumulation assay in human HEK293 cells stably expressing the recombinant human P2X7R.
(In two-electrode clamp one electrode senses voltage and the other passes current.)

[4] abbreviates: pH 7.4, human plasma, read-out: Plasma protein binding rate, Human (converted).

Read-outs that look alike come from different tables or passages of the source.

`CCCc1nc(Cc2cccc(Oc3ccccc3)c2)c(C)c(C(=O)OC)c1O` [Compound 28, Methyl 3-hydroxy-5-methyl-6-(3-phenoxybenzyl)-2-propylisonicotinate]: the fraction unbound at 4 h, 5 µM in series [1] (setting [4]) was 0.005. Also, in series [2] (Rattus norvegicus, antiallodynic effect, intravenous administration), the ED50 (commonly the dose that gives a 50% effect, or the effect in half of the subjects) was found to be 2.62 mg/kg.
Regarding `CCCc1nc(Cc2cccc(Oc3ccccc3)c2)c(C)c(C(=O)O)c1O` [Compound 29, 3-Hydroxy-5-methyl-6-(3-phenoxybenzyl)-2-propylisonicotinic acid], the inhibition at 10 µM in series [3] was 23.3 ± 4.8%. The fraction unbound at 4 h, 5 µM in series [1] (setting [4]) is 0.001 ± 6.01e-07; in series [1] (pH 7.4, species not given, read-out: plasma protein binding) it was less than 0.01. Also, the “antiallodynic efficacy, MPE %” value in series [2] (1 μg, intrathecal administration) is given as 58±19%. In addition, the paw withdrawal threshold entry in series [2] (intrathecal administration, von Frey) is on record as “increase in paw withdrawal threshold”.
Turning to `CCCc1nc(CCc2ccc(OC)cc2)c(C(=O)O)c(C(=O)O)c1O` [Compound 13d, 5-Hydroxy-2-(4-methoxyphenethyl)-6-propylpyridine-3,4-dicarboxylic acid], in series [3], the inhibition at 10 µM worked out at 42.8 ± 7.4%.

The record behind these values is patent US11319289B2, “5-hydroxy pyridine-based compound for use as P2X1 and P2X3 receptor antagonist and pharmaceutical composition comprising same” (GWANGJU INSTITUTE OF SCIENCE AND TECHNOLOGY, priority 2017, dated 2022).
